Source: ChEMBL document CHEMBL6127050, “Simultaneous inhibition of FLT3 and HDAC by novel 6-ethylpyrazine-2-Carboxamide derivatives provides therapeutic advantages in acute myelocytic leukemia” (Eur J Med Chem, 2024)
Values belong to the compound of their own block, whether it stands above or below them. Active and inactive are the calls of the source. The calls are words filed in the database; no cut-off is given here.

Columns and labels:
[1] = biological target: T1, Histone deacetylase (Homo sapiens) (UniProt Q13547+O15379+Q9UBN7+Q92769+Q9UQL6+Q8WUI4+Q9BY41+Q96DB2+P56524+Q9UKV0+Q969S8); experiment: Inhibition of HDAC in human HeLa nuclear extract using Boc-Lys(Ac)-AMC as substrate at 10000 nM incubated for 0.5 hrs by microplate reader analysis relative to control; format: cell-free
[2] = biological target: T1, Histone deacetylase (Homo sapiens); experiment: Inhibition of HDAC in human HeLa nuclear extract using Boc-Lys(Ac)-AMC as substrate at 200 nM incubated for 0.5 hrs by microplate reader analysis relative to control; format: cell-free
[3] = biological target: Histone deacetylase; experiment: Inhibition of HDAC in human HeLa nuclear extract using Boc-Lys(Ac)-AMC as substrate incubated for 0.5 hrs by microplate reader analysis; format: cell-based
[4] = tested on: MOLM-13; experiment: Induction of cell cycle arrest in human MOLM-13 cells assessed as accumulation of cells at G0/G1 phase at 0.05 uM measured for 48 hrs by PI/RNase staining based flow cytometric analysis (reference value: 46.24 %); format: functional
[5] = tested on: MOLM-13; experiment: Induction of apoptosis in human MOLM-13 cells assessed as late apoptotic cells at 0.1 uM incubated for 48 hrs by Annexin V-FITC staining based flow cytometry analysis (reference value: 1.40 %); format: functional
[6] = Toxicity in BALB/c mouse xenografted with human MOLM-13 cells assessed as body weight loss at 10 mg/kg, IG qd administered 5 days a week and measured on day 9 in presence of vorinostat; format: organism-based; details: in vivo, po, 216 h, time 9 day
[7] = tested on: MOLM-13; experiment: Antiproliferative activity against human MOLM-13 cells incubated for 48 hrs; details: MOLM-13, 48 h
[8] = tested on: KG-1; experiment: Antiproliferative activity against human KG-1 cells incubated for 48 hrs; details: KG-1, 48 h
[9] = tested on: MOLM-13; experiment: Induction of cell cycle arrest in human MOLM-13 cells assessed as accumulation of cells at G2M phase at 0.05 uM measured for 48 hrs by PI/RNase staining based flow cytometric analysis (reference value: 10.81%); format: functional
[10] = tested on: MOLM-13; experiment: Induction of cell cycle arrest in human MOLM-13 cells assessed as accumulation of cells at G2M phase at 0.05 uM measured for 48 hrs in presence of vorinostat by PI/RNase staining based flow cytometric analysis (reference value: 10.81%); format: functional
[11] = tested on: MOLM-13; experiment: Antitumor activity against human MOLM-13 cells xenografted BALB/c mouse assessed as reduction in tumor volume at 10 mg/kg, IG qd administered 5 days a week and measured on day 9 in presence of vorinostat; format: functional, organism-based; details: time 9.0 day
[12] = Toxicity in NOD/SCID mouse xenografted with human MOLM-13 cells assessed as increase in survival rate at 15 mg/kg, IG administered 5 days per week in presence of vorinostat by Kaplan Mayer survival analysis; format: organism-based; details: in vivo, po, 120 h, time 5 day
[13] = tested on: MOLM-13; experiment: Induction of cell cycle arrest in human MOLM-13 cells assessed as accumulation of cells at S-phase at 0.05 uM measured for 48 hrs in presence of vorinostat by PI/RNase staining based flow cytometric analysis (reference value: 42.95%); format: functional
[14] = tested on: MOLM-13; experiment: Induction of apoptosis in human MOLM-13 cells assessed as early apoptotic cells at 0.1 uM incubated for 48 hrs in presence of vorinostat by Annexin V-FITC staining based flow cytometry analysis (reference value: 4.07 %); format: functional
[15] = tested on: MOLM-13; experiment: Induction of apoptosis in human MOLM-13 cells assessed as early apoptotic cells at 0.1 uM incubated for 48 hrs by Annexin V-FITC staining based flow cytometry analysis (reference value: 4.07 %); format: functional
[16] = tested on: MOLM-13; experiment: Induction of apoptosis in human MOLM-13 cells assessed as late apoptotic cells at 0.1 uM incubated for 48 hrs in presence of vorinostat by Annexin V-FITC staining based flow cytometry analysis (reference value: 1.40 %); format: functional
[17] = tested on: MOLM-13; experiment: Induction of apoptosis in human MOLM-13 cells assessed as necrotic cells at 0.1 uM incubated for 48 hrs in presence of vorinostat by Annexin V-FITC staining based flow cytometry analysis (reference value: 0.013 %); format: functional
[18] = tested on: THP-1; experiment: Antiproliferative activity against human THP-1 cells incubated for 48 hrs; details: THP-1, 48 h
[19] = tested on: MOLM-13; experiment: Induction of cell cycle arrest in human MOLM-13 cells assessed as accumulation of cells at S-phase at 0.05 uM measured for 48 hrs by PI/RNase staining based flow cytometric analysis (reference value: 42.95%); format: functional
[20] = tested on: MOLM-13; experiment: Induction of apoptosis in human MOLM-13 cells assessed as viable cells at 0.1 uM incubated for 48 hrs in presence of vorinostat by Annexin V-FITC staining based flow cytometry analysis (reference value: 94.5 %); format: functional; details: read-out: Activity
[21] = tested on: MOLM-13; experiment: Induction of apoptosis in human MOLM-13 cells assessed as viable cells at 0.1 uM incubated for 48 hrs by Annexin V-FITC staining based flow cytometry analysis (reference value: 94.5 %); format: functional; details: Homo sapiens, MOLM-13, read-out: Activity
[22] = tested on: MOLM-13; experiment: Induction of apoptosis in human MOLM-13 cells assessed as necrotic at 0.1 uM incubated for 48 hrs by Annexin V-FITC staining based flow cytometry analysis (reference value: 0.013 %); format: functional
[23] = Toxicity in BALB/c mouse xenografted with human MOLM-13 cells assessed as lung damage at 10 mg/kg, IG qd administered 5 days a week and measured on day 9 in presence of vorinostat by H and E staining based analysis; format: organism-based; details: in vivo, po, 216 h, time 9 day
[24] = Cytotoxicity against HEK293T cells incubated for 48 hrs; format: toxicity, cell-based, HEK-293T; details: human
[25] = tested on: MOLM-13; experiment: Induction of cell cycle arrest in human MOLM-13 cells assessed as accumulation of cells at G0/G1 phase at 0.05 uM measured for 48 hrs in presence of vorinostat by PI/RNase staining based flow cytometric analysis (reference value: 46.24 %); format: functional
[26] = tested on: K562; experiment: Antiproliferative activity against human K562 cells incubated for 48 hrs; details: K562, 48 h
[27] = tested on: MOLM-13; experiment: Antitumor activity against human MOLM-13 cells xenografted BALB/c mouse assessed as tumor growth inhibition at 10 mg/kg, IG qd administered 5 days a week and measured on day 9 in presence of vorinostat; format: functional; details: MOLM-13, po, 216 h, time 9 day, read-out: TGI
[28] = biological target: T2, Receptor-type tyrosine-protein kinase FLT3 (Homo sapiens, UniProt P36888); experiment: Inhibition of FLT3 (unknown origin) incubated for 40 mins in presence of ATP by kinase-glo plus luminescence assay
T2 sequence (P36888 whole entry): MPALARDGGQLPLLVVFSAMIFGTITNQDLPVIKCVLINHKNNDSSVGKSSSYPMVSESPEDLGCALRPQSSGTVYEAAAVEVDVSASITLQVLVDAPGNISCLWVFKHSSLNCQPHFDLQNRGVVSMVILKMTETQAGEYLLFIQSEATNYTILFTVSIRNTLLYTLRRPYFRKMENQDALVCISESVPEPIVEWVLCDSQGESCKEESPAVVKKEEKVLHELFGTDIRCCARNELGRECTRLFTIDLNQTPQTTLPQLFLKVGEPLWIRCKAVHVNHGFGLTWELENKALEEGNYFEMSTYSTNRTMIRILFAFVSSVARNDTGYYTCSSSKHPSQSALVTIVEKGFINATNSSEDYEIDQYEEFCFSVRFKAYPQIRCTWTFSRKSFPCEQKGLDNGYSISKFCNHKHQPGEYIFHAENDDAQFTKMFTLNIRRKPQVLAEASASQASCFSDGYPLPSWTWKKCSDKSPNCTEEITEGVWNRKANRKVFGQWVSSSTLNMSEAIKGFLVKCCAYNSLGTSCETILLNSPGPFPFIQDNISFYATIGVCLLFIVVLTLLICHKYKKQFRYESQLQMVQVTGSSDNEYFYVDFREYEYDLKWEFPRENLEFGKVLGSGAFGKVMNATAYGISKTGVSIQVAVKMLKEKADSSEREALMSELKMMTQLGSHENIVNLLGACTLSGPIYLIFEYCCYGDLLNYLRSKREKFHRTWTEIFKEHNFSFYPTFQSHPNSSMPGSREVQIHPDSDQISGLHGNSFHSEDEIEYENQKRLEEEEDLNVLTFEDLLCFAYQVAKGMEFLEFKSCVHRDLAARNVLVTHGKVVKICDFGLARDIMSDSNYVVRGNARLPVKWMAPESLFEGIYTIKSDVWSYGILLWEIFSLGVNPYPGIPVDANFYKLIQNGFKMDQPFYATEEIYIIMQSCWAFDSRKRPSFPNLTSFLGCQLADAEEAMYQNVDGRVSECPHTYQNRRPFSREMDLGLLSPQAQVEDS

SMILES: CCc1nc(C(N)=O)c(Nc2ccc(N3CCC(N4CCN(c5ncc(C(=O)NO)cn5)CC4)CC3)c(OC)c2)nc1NC1CCOCC1
- inhibition [2]: 18.7%

SMILES: CCc1nc(C(N)=O)c(Nc2ccc(N3CCC(N4CCN(CCCCCCCC(=O)NO)CC4)CC3)c(OC)c2)nc1NC1CCOCC1
- inhibition [2]: 28%

SMILES: CCc1nc(C(N)=O)c(Nc2ccc(N3CCN(C(=O)CCCCCCC(=O)NO)CC3)c(OC)c2)nc1NC1CCOCC1
- IC50 [3]: 147.3 nM

SMILES: CCc1nc(C(N)=O)c(Nc2ccc(N3CCN(CCC(=O)NO)CC3)c(OC)c2)nc1NC1CCOCC1
- inhibition [2]: 10%

SMILES: CCc1nc(C(N)=O)c(Nc2ccc(N3CCC(N4CCN(C)CC4)CC3)c(OC)c2)nc1NC1CCOCC1 [GILTERITINIB]
- Activity [4]: 50%
- Activity [5]: 12.7%
- Activity [6]: Non-Toxic
- IC50 [7]: 12 nM
- IC50 [8]: 620 nM
- Activity [9]: 5.53%
- Activity [10]: 7.24%
- Activity [11]: Active
- Activity [12]: Non-Toxic
- Activity [13]: 28.26%
- Activity [14]: 35%
- Activity [15]: 33.5%
- Activity [16]: 17.4%
- Activity [17]: 0.88%
- IC50 [18]: 850 nM
- Activity [19]: 44.47%
- viability at 0.1 µM [20]: 46.8%
- viability at 0.1 µM [21]: 53.5%
- Activity [22]: 0.36%
- Activity [23]: Non-Toxic
- IC50 at 48 h [24]: 970 nM
- Activity [25]: 64.51%
- IC50 [26]: 990 nM
- inhibition in vivo at 10 mg/kg [27]: 55.3%

SMILES: CCc1nc(C(N)=O)c(Nc2ccc(N3CCN(CCCCCC(=O)NO)CC3)c(OC)c2)nc1NC1CCOCC1
- inhibition [2]: 25%

SMILES: CCc1nc(C(N)=O)c(Nc2ccc(N3CCC(N4CCN(C(=O)CCCCCCC(=O)NO)CC4)CC3)c(OC)c2)nc1NC1CCOCC1
- inhibition [2]: 27%

SMILES: CCc1nc(C(N)=O)c(Nc2ccc(N3CCC(N4CCN(c5ncc(C(=O)Nc6ccccc6N)cn5)CC4)CC3)c(OC)c2)nc1NC1CCOCC1
- inhibition [1]: 4.3%

SMILES: CCc1nc(C(N)=O)c(Nc2ccc(N3CCN(CCCC(=O)NO)CC3)c(OC)c2)nc1NC1CCOCC1
- inhibition [2]: 3%

SMILES: CCc1nc(C(N)=O)c(Nc2ccc(N3CCN(CCCCC(=O)NO)CC3)c(OC)c2)nc1NC1CCOCC1
- inhibition [2]: 1%

SMILES: CCc1nc(C(N)=O)c(Nc2ccc(N3CCN(CCCCCCC(=O)NO)CC3)c(OC)c2)nc1NC1CCOCC1
- IC50 [7]: 10 nM
- IC50 [8]: 1440 nM
- IC50 [28]: 0.6 nM
- IC50 [3]: 330 nM
- IC50 [18]: 1550 nM
- IC50 [26]: 1060 nM

SMILES: CCc1nc(C(N)=O)c(Nc2ccc(N3CCN(C(=O)CCCCCC(=O)NO)CC3)c(OC)c2)nc1NC1CCOCC1
- IC50 [3]: 204.3 nM

SMILES: CCc1nc(C(N)=O)c(Nc2ccc(N3CCC(N4CCN(C(=O)CCCCCC(=O)NO)CC4)CC3)c(OC)c2)nc1NC1CCOCC1
- inhibition [2]: 14%

The remaining lines, values ahead:

- inhibition [1]: 27.5%
SMILES: CCc1nc(C(N)=O)c(Nc2ccc(N3CCC(N4CCN(Cc5ccc(C(=O)Nc6ccccc6N)cc5)CC4)CC3)c(OC)c2)nc1NC1CCOCC1

- inhibition [2]: 10%
SMILES: CCc1nc(C(N)=O)c(Nc2ccc(N3CCC(N4CCN(C(=O)CCCCC(=O)NO)CC4)CC3)c(OC)c2)nc1NC1CCOCC1

- inhibition [2]: 36%
SMILES: CCc1nc(C(N)=O)c(Nc2ccc(N3CCC(N4CCN(CCCCCC(=O)NO)CC4)CC3)c(OC)c2)nc1NC1CCOCC1

- IC50 [3]: 93.7 nM
SMILES: CCc1nc(C(N)=O)c(Nc2ccc(N3CCN(Cc4ccc(/C=C/C(=O)NO)cc4)CC3)c(OC)c2)nc1NC1CCOCC1

- inhibition [2]: 27%
SMILES: CCc1nc(C(N)=O)c(Nc2ccc(N3CCC(N4CCN(C(=O)CCCC(=O)NO)CC4)CC3)c(OC)c2)nc1NC1CCOCC1

- inhibition [2]: 18%
SMILES: CCc1nc(C(N)=O)c(Nc2ccc(N3CCC(N4CCN(Cc5ccc(C(=O)NO)cc5)CC4)CC3)c(OC)c2)nc1NC1CCOCC1

- IC50 [3]: 63 nM
SMILES: CCc1nc(C(N)=O)c(Nc2ccc(N3CCC(N4CCN(Cc5ccc(C(=O)NCc6ccc(/C=C/C(=O)NO)cc6)cc5)CC4)CC3)c(OC)c2)nc1NC1CCOCC1

- inhibition [2]: 28%
SMILES: CCc1nc(C(N)=O)c(Nc2ccc(N3CCC(N4CCN(Cc5ccc(/C=C/C(=O)NO)cc5)CC4)CC3)c(OC)c2)nc1NC1CCOCC1
